Results from patent EP1921068A1, “Indazole and indole derivatives as anti-inflammatory agents” (Bayer Schering Pharma Aktiengesellschaft, priority 2006, dated 2008).

Legend:
[1] = target: T1, glucocorticoid receptor (GR) (Homo sapiens, UniProt P04150); test: Binding to recombinantly produced glucocorticoid receptor (cytosol preparations of baculovirus-infected Sf9 cells, [3H]-dexamethasone as reference substance); conditions: recombinant GR
T1 construct: made in house; host or cells: Sf9 insect cells infected with recombinant baculovirus; cytosol preparation
T1 sequence (P04150 1-777): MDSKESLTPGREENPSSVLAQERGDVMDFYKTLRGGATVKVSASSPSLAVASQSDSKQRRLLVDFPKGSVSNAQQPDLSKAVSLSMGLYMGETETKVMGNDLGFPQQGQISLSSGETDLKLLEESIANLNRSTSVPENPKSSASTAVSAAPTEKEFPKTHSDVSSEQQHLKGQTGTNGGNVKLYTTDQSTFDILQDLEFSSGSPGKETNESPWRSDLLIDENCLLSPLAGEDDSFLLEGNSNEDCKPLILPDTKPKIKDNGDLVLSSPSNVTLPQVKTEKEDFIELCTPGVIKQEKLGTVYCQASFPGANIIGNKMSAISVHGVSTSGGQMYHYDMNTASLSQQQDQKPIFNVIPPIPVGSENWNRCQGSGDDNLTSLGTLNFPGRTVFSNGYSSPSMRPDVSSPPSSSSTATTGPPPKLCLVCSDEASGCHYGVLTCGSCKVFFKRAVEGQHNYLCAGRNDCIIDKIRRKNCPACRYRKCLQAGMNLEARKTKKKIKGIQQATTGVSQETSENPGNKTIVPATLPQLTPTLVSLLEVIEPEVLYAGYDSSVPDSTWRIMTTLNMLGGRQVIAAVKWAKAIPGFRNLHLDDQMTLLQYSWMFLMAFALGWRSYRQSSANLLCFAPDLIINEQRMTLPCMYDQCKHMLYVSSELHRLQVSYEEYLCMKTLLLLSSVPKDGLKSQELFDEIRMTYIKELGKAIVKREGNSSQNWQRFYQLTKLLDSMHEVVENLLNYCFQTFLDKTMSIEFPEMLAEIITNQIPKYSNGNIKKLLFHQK
From the text: The binding of the substances to the glucocorticoid receptor (GR) and other steroid hormone receptors (mineral corticoid receptor (MR), progesterone receptor (PR) and androgen receptor (AR)) is examined with the aid of recombinantly produced receptors. Cytosol preparations of Sf9 cells, which had been infected with recombinant baculoviruses, which code for the GR, are used for the binding studies. In comparison to reference substance [^3H]-dexamethasone, the substances show a high to very high affinity to GR. IC50(GR) = 11,5 nM was thus measured for the compound from Example A16.

[2] = test system: secretion of cytokine IL-8 into the human monocyte cell line THP-1; test: Inhibition of LPS-triggered IL-8 secretion in THP-1 cells (ELISA of supernatant); type: cell-based
Protocol: The concentration of the cytokines was determined in the supernatant by means of commercially available ELISA kits.

- IC50 [1]: 11.5 nM
- IC50 ([2]; read-out: IC50(IL8)): 0.3 nM
Compound: CC(C)(CC(O)(CNc1cccc2c1cnn2-c1ccc(F)nc1)C(F)(F)F)c1cccc2c1OCO2 (stereo not drawn) [Example A16]
- Emax ([2]; efficacy relative to dexamethasone, read-out: eff. relative to dexamethasone): 94%
